Values quoted from earlier work, collected in patent publication US20240189327A1, “SYNERGISTIC CANNABINOID ESTERS, THEIR SALTS AND USES THEREOF” (LONDON PHARMACEUTICALS AND RESEARCH CORPORATION, priority 2021, published 2024).

Key:
[1] = in vivo
intraocular pressure = details: normotensive rabbit
[2] = pH 7.4

## C=C(C)[C@@H]1CCC(C)=C[C@H]1c1c(O)cc(CCCCC)cc1O [CBD, cannabidiol]
[1]
  time to maximum plasma level: 4 to 6 h

## N[C@H]1C(O)O[C@H](CO)[C@@H](O)[C@@H]1O (stereo partly shown) [glucosamine]
[1]
  time to maximum plasma level: 0.833 h

## CCCCC/C=C\C/C=C\C/C=C\C/C=C\CCCC(=O)NCCOP(=O)(O)O [phosphate ester pro-drug of anandamide]
Intraocular pressure
  effect on intraocular pressure: reduced the intraocular pressure
[2]
  increase of aqueous solubility over the parent endocannabinoids: > 16 500 fold
